Tests used:
Format in all cases: in vivo
[1] = system: Alopecurus myosuroides (ALOMY); test: Post-emergence herbicidal glasshouse test; conditions: post-emergence (sprayed after 8 days cultivation), evaluated after 13 days, 100=total damage to plant, 0=no damage to plant; for POST Application ALOMY, damage to plant: 1000 g/ha; for pest or weed control at 1000 g/ha: Alopecurus myosuroides, 312 h, read-out: POST Application ALOMY, damage to plant
Outline: (§1)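 Damage rated 13 days after application on a 0 (none) to 100 (total) scale. Compounds went on at 1000 g/ha in acetone/water 50:50 plus 0.5% Tween 20, one day post-sowing for pre-emergence or eight days for post-emergence. Plants grown at 24/16° C, 14 h light, 65% humidity.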

[2] = system: Amaranthus retoflexus (AMARE); test: Post-emergence herbicidal glasshouse test; conditions: post-emergence (sprayed after 8 days cultivation), evaluated after 13 days, 100=total damage to plant, 0=no damage to plant; for POST Application AMARE, damage to plant: 1000 g/ha; for pest or weed control at 1000 g/ha: Amaranthus retroflexus, 312 h, read-out: POST Application AMARE, damage to plant
Outline: as §1

[3] = system: Echinochloa crus-galli (ECHCG); test: Post-emergence herbicidal glasshouse test; conditions: post-emergence (sprayed after 8 days cultivation), evaluated after 13 days, 100=total damage to plant, 0=no damage to plant; for POST Application ECHCG, damage to plant: 1000 g/ha; for pest or weed control at 1000 g/ha: Echinochloa crus-galli, 312 h, read-out: POST Application ECHCG, damage to plant
Outline: (§2)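 Rates of 1000 g/ha are applied as an acetone/water (50:50) spray with 0.5% Tween 20 to soil-sown pots, pre-emergence at day 1 or post-emergence at day 8. Percent damage is assessed after 13 days.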

Setaria faberi (SETFA) [4] = test: Post-emergence herbicidal glasshouse test; conditions: post-emergence (sprayed after 8 days cultivation), evaluated after 13 days, 100=total damage to plant, 0=no damage to plant; for POST Application SETFA, damage to plant: 1000 g/ha; for pest or weed control at 1000 g/ha: Setaria faberi, 312 h, read-out: POST Application SETFA, damage to plant
Outline: as §1

Solanum nigrum (SOLNI) [5] = test: Post-emergence herbicidal glasshouse test; conditions: post-emergence (sprayed after 8 days cultivation), evaluated after 13 days, 100=total damage to plant, 0=no damage to plant; for POST Application SOLNI, damage to plant: 1000 g/ha; for pest or weed control at 1000 g/ha: Solanum nigrum, 312 h, read-out: POST Application SOLNI, damage to plant
Outline: as §1

[6] = system: Alopecurus myosuroides (ALOMY); test: Pre-emergence herbicidal glasshouse test; conditions: pre-emergence (sprayed after one day cultivation), evaluated after 13 days, 100=total damage to plant, 0=no damage to plant; for PRE Application ALOMY, damage to plant: 1000 g/ha; for pest or weed control at 1000 g/ha: Alopecurus myosuroides, 312 h, read-out: PRE Application ALOMY, damage to plant
Outline: as §1

[7] = system: Amaranthus retoflexus (AMARE); test: Pre-emergence herbicidal glasshouse test; conditions: pre-emergence (sprayed after one day cultivation), evaluated after 13 days, 100=total damage to plant, 0=no damage to plant; for PRE Application AMARE, damage to plant: 1000 g/ha; for pest or weed control at 1000 g/ha: Amaranthus retroflexus, 312 h, read-out: PRE Application AMARE, damage to plant
Outline: as §1

[8] = system: Echinochloa crus-galli (ECHCG); test: Pre-emergence herbicidal glasshouse test; conditions: pre-emergence (sprayed after one day cultivation), evaluated after 13 days, 100=total damage to plant, 0=no damage to plant; for PRE Application ECHCG, damage to plant: 1000 g/ha; for pest or weed control at 1000 g/ha: Echinochloa crus-galli, 312 h, read-out: PRE Application ECHCG, damage to plant
Outline: as §2

Setaria faberi (SETFA) [9] = test: Pre-emergence herbicidal glasshouse test; conditions: pre-emergence (sprayed after one day cultivation), evaluated after 13 days, 100=total damage to plant, 0=no damage to plant; for PRE Application SETFA, damage to plant: 1000 g/ha; for pest or weed control at 1000 g/ha: Setaria faberi, 312 h, read-out: PRE Application SETFA, damage to plant
Outline: as §1

Solanum nigrum (SOLNI) [10] = test: Pre-emergence herbicidal glasshouse test; conditions: pre-emergence (sprayed after one day cultivation), evaluated after 13 days, 100=total damage to plant, 0=no damage to plant; for PRE Application SOLNI, damage to plant: 1000 g/ha; for pest or weed control at 1000 g/ha: Solanum nigrum, 312 h, read-out: PRE Application SOLNI, damage to plant
Outline: as §1

Row | SMILES | POST Application ALOMY, damage to plant [1] | POST Application AMARE, damage to plant [2] | POST Application ECHCG, damage to plant [3] | POST Application SETFA, damage to plant (Setaria faberi (SETFA) [4]) | POST Application SOLNI, damage to plant (Solanum nigrum (SOLNI) [5]) | PRE Application ALOMY, damage to plant [6] | PRE Application AMARE, damage to plant [7] | PRE Application ECHCG, damage to plant [8] | PRE Application SETFA, damage to plant (Setaria faberi (SETFA) [9]) | PRE Application SOLNI, damage to plant (Solanum nigrum (SOLNI) [10]) | pest or weed control at 1000 g/ha [1] [%] | pest or weed control at 1000 g/ha [2] [%] | pest or weed control at 1000 g/ha [3] [%] | pest or weed control at 1000 g/ha (Setaria faberi (SETFA) [4]) [%] | pest or weed control at 1000 g/ha (Solanum nigrum (SOLNI) [5]) [%] | pest or weed control at 1000 g/ha [6] [%] | pest or weed control at 1000 g/ha [7] [%] | pest or weed control at 1000 g/ha [8] [%] | pest or weed control at 1000 g/ha (Setaria faberi (SETFA) [9]) [%] | pest or weed control at 1000 g/ha (Solanum nigrum (SOLNI) [10]) [%]
1 | O=C1CCCC(=O)C1C(=O)c1cc2ccc(=O)n(Cc3ccccc3F)c2nc1C(F)(F)F [Compound 2.12] | 70 | 70 | 70 | 90 | 100 | 80 | 60 | 90 | 90 | 90 | – | – | – | – | – | – | – | – | – | –
2 | CCCn1c(=O)ccc2cc(C(=O)C3C(=O)CCCC3=O)c(C(F)(F)F)nc21 [Compound 2.13, 2-{8-n.-propyl-7-oxo-7,8-dihydro-2-trifluoromethyl-[1,8]-naphthyridine-3-carbony}-cyclohexane-1,3-dione] | 80 | 70 | 90 | 90 | 90 | 60 | 90 | 90 | 90 | 100 | – | – | – | – | – | – | – | – | – | –
3 | C=CCn1c(=O)ccc2cc(C(=O)C3C(=O)CCCC3=O)c(C(F)(F)F)nc21 [Compound 2.14, 2-{8-allyl-7-oxo-7,8-dihydro-2-trifluoromethyl-[1,8]-naphthyridine-3-carbony}-cyclohexane-1,3-dione] | 80 | 70 | 90 | 90 | 90 | 40 | 60 | 100 | 80 | 90 | – | – | – | – | – | – | – | – | – | –
4 | O=C1CCCC(=O)C1C(=O)c1cc2ccc(=O)n(CCc3ccccc3)c2nc1C(F)(F)F [Compound 2.15, 2-{8-(2-phenylethyl)-7-oxo-7,8-dihydro-2-trifluoromethyl-[1,8]-naphthyridine-3-carbonyl}-cyclohexane-1,3-dione] | – | – | – | – | – | – | – | – | – | – | 40 | 70 | 80 | 90 | 90 | 10 | 30 | 90 | 40 | 90
5 | CCOCCn1c(=O)ccc2cc(C(=O)C3C(=O)CCCC3=O)c(C(F)(F)F)nc21 [Compound 2.16, 2-{8-(2-ethoxyethyl)-7-oxo-7,8-dihydro-2-trifluoromethyl-[1,8]-naphthyridine-3-carbony}-cyclohexane-1,3-dione] | 90 | 70 | 90 | 90 | 90 | 60 | 90 | 90 | 90 | 90 | – | – | – | – | – | – | – | – | – | –
6 | CCCOCCn1c(=O)ccc2cc(C(=O)C3C(=O)CCCC3=O)c(C(F)(F)F)nc21 [Compound 2.17] | 30 | 90 | 80 | 90 | 90 | 10 | 40 | 80 | 50 | 80 | – | – | – | – | – | – | – | – | – | –
7 | CC#CCn1c(=O)ccc2cc(C(=O)C3C(=O)CCCC3=O)c(C(F)(F)F)nc21 [Compound 2.19, 2-(8-(But-2-ynyl)-7-oxo-7,8-dihydro-2-trifluoromethyl-[1,8]-naphthyridine-3-carbony)-cyclohexane-1,3-dione] | 100 | 70 | 90 | 100 | 100 | 100 | 100 | 100 | 100 | 100 | – | – | – | – | – | – | – | – | – | –
8 | O=C1CCCC(=O)C1C(=O)c1cc2ccc(=O)n(Cc3ccccc3)c2nc1C(F)(F)F [Compound 2.20, 2-(8-Benzyl-7-oxo-7,8-dihydro-2-trifluoromethyl-[1,8]-naphthyridine-3-carbony)-cyclohexane-1,3-dione] | 70 | 80 | 70 | 70 | 80 | 100 | 100 | 100 | 100 | 100 | – | – | – | – | – | – | – | – | – | –
9 | Cn1c(=O)ccc2cc(C(=O)C3C(=O)CCCC3=O)c(C(F)(F)F)nc21 [Compound 2.21, 2-(8-methyl-7-oxo-7,8-dihydro-2-trifluoromethyl-[1,8]-naphthyridine-3-carbony)-cyclohexane-1,3-dione] | – | – | – | – | – | – | – | – | – | – | 80 | 90 | 70 | 80 | 80 | 90 | 100 | 100 | 100 | 100
10 | COCCn1c(=O)ccc2cc(C(=O)C3C(=O)CCCC3=O)c(C(F)(F)F)nc21 [Compound 2.22, 2-{8-(2-Methoxyethyl)-7-oxo-7,8-dihydro-2-trifluoromethyl-[1,8]-naphthyridine-3-carbony}-cyclohexane-1,3-dione] | 80 | 80 | 80 | 80 | 90 | 100 | 100 | 100 | 100 | 100 | – | – | – | – | – | – | – | – | – | –

— US8461083B2, “Herbicidal compounds” (Syngenta Limited, priority 2008, dated 2013)
